Data as given in PubChem BioAssay (NCI).
Values joined by “and” are separate entries in the source; they are usually repeats but may differ in a detail not shown here. Identical values can stand only once.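 Growth conditions: 96-well plates. Treatment: test compound, 48 hours, 5 concentrations. Analysis: linear interpolation between bracketing concentrations; unreached endpoints set to highest concentration. At the GI50, growth is halved. TGI: concentration producing complete growth inhibition.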

Experiments:
Test in all cases: NCI anticancer screen, dose series, 48 h
SR leukemia = test system: SR leukemia
A498 renal = test system: A498 renal
ACHN renal = test system: ACHN renal
OVCAR-5 ovarian = test system: OVCAR-5 ovarian
NCI-H226 lung = test system: NCI-H226 lung
IGROV1 ovarian = test system: IGROV1 ovarian
CAKI-1 renal = test system: CAKI-1 renal
MOLT-4 leukemia = test system: MOLT-4 leukemia
OVCAR-4 ovarian = test system: OVCAR-4 ovarian
OVCAR-3 ovarian = test system: OVCAR-3 ovarian

Row | Compound | GI50 (SR leukemia) | TGI (SR leukemia) | GI50 (A498 renal) | TGI (A498 renal) | GI50 (ACHN renal) | TGI (ACHN renal) | GI50 (OVCAR-5 ovarian) | TGI (OVCAR-5 ovarian) | GI50 (NCI-H226 lung) | TGI (NCI-H226 lung) | GI50 (IGROV1 ovarian) | TGI (IGROV1 ovarian) | TGI (CAKI-1 renal) | TGI (MOLT-4 leukemia) | TGI (OVCAR-4 ovarian) | TGI (OVCAR-3 ovarian) | GI50 (CAKI-1 renal) | GI50 (MOLT-4 leukemia) | GI50 (OVCAR-4 ovarian) | GI50 (OVCAR-3 ovarian)
1 | CNC(=O)c1cc(Oc2ccc3nc(NC(=O)Nc4ccc(Cl)c(C(F)(F)F)c4)sc3c2)ccn1 | 0.412 µM | 9.1 µM | 2.49 µM | 12.2 µM | 1.85 µM | 3.8 µM | 2.46 µM | 7.55 µM | 2.69 µM | 7.47 µM | 2.02 µM | 5.12 µM | – | – | – | – | – | – | – | –
2 | CCNC1C2(CCCCC2)NC(=O)C12CCCCC2 (configuration not stated) | – | – | – | > 100 µM | – | > 100 µM | – | > 100 µM | – | > 100 µM | – | > 100 µM | > 100 µM | > 100 µM | > 100 µM | > 100 µM | – | – | – | –
3 | COc1cc2cnc3c4cc(OC(C)C)c(OC)cc4ccc3c2cc1OC | – | – | – | > 100 µM | – | > 100 µM | – | > 100 µM | – | – | – | > 100 µM | > 100 µM | > 100 µM | > 100 µM | > 100 µM | – | – | – | –
4 | O=C(O)CCSC(=O)Nc1cccc(F)c1 | – | > 100 µM | – | > 100 µM | – | > 100 µM | – | > 100 µM | – | > 100 µM | – | – | – | > 100 µM | – | > 100 µM | – | – | – | –
5 | COc1ccc2c(c1)C1(C=N2)CCN(C(C)=O)CC1 | – | – | – | > 100 µM | – | > 100 µM | – | > 100 µM | – | – | – | > 100 µM | > 100 µM | > 100 µM | > 100 µM | > 100 µM | – | – | – | –
6 | CCOC(=O)C1=C(C)CC2C(=O)OC(=O)C2C1(C)C (configuration not stated) | – | > 100 µM | – | – | – | > 100 µM | – | > 100 µM | – | > 100 µM | – | > 100 µM | – | > 100 µM | – | > 100 µM | – | – | – | –
7 | Nc1ccc(C(=O)N/C(=C\c2ccc3c(c2)OCO3)c2nc3[nH]c(=S)[nH]c(=O)c3[nH]2)cc1 | – | > 100 µM | – | – | – | > 100 µM | – | > 100 µM | – | – | – | > 100 µM | > 100 µM | > 100 µM | > 100 µM | > 100 µM | – | – | – | –
8 | COc1ccccc1NC(=O)CC(=O)n1nc(C)c(N=Nc2ccccc2C(=O)O)c1C | – | – | – | > 100 µM | – | – | – | > 100 µM | – | – | – | > 100 µM | > 100 µM | > 100 µM | > 100 µM | > 100 µM | – | – | – | –
9 | CNC(=O)c1ccccc1Nc1nc(Nc2ccc(N3CCOCC3)cc2OC)ncc1Cl | 0.0251 µM | 3.25 µM | 0.488 µM | 2.39 µM | – | – | – | – | 1.01 µM | > 74 µM | 0.277 µM | 2.15 µM | 1.58 µM | > 63.7 µM | > 47.1 µM | > 53.3 µM | 0.165 µM | 1.85 µM | 1.95 µM | 1.73 µM
10 | Cc1cnc(NC(=O)C(Cc2ccccc2)NC(=O)c2ccccc2)s1 (configuration not stated) | 2.78 µM | 26.6 µM | 31.1 µM | > 100 µM | 3.49 µM | 16.9 µM | 25.3 µM | 63.7 µM | 2.04 µM | 7.05 µM | – | – | > 100 µM | 95.4 µM | > 100 µM | 25.8 µM | 33 µM | 24.1 µM | 16.3 µM | 11.3 µM
11 | CC1=C(C(=O)Nc2ccccc2C)C(c2ccco2)C(C(=O)Nc2ccccc2C)=C(C)N1C | – | > 100 µM | – | – | – | > 100 µM | – | > 100 µM | – | > 100 µM | – | > 100 µM | > 100 µM | > 100 µM | > 100 µM | > 100 µM | – | – | – | –
12 | C=CCc1cc(OC)c2c(c1)C(O)CC(c1ccc(OC)c(OC)c1)O2 (configuration not stated) | – | > 100 µM | – | – | – | > 100 µM | – | > 100 µM | – | > 100 µM | – | > 100 µM | > 100 µM | > 100 µM | > 100 µM | > 100 µM | – | – | – | –
13 | COC(=O)[C@@H](C)C[C@H](Cc1ccc(F)cc1)NC(=O)c1csc([C@@H](C[C@H](C(C)C)N(C)C(=O)[C@@H](NC(=O)[C@H]2CCCCN2C)C(C)C)OC(C)=O)n1 | 0.000437 µM and 0.00167 µM | > 16.7 µM | 0.00469 µM and 0.0202 µM | 0.111 µM | 0.134 µM | > 16.7 µM | – | > 16.7 µM | – | – | – | > 16.7 µM | – | > 16.7 µM | > 16.7 µM | 0.00216 µM and 0.012 µM | – | 0.00245 µM and 0.00876 µM | – | –
14 | CCOC(=O)COc1cccc2c1C(=O)CCO2 | – | – | – | > 100 µM | – | > 100 µM | – | > 100 µM | – | – | – | > 100 µM | > 100 µM | > 100 µM | > 100 µM | > 100 µM | – | – | – | –
15 | CCOC(=O)C(Sc1ccccc1)c1c(OC)cc(=O)oc1/C=[N+](/[O-])c1ccc(N(C)C)cc1 (configuration not stated) | – | – | – | > 100 µM | – | – | – | 83.1 µM | – | – | – | > 100 µM | 32.1 µM | 37.9 µM | 51.6 µM | 26 µM | – | – | – | –
16 | COc1ccc(-c2cc(=O)c3ccc(O)cc3o2)c(OC)c1OC | – | – | – | – | – | > 100 µM | – | – | – | > 100 µM | – | > 100 µM | > 100 µM | – | > 100 µM | > 100 µM | – | – | – | –
17 | COc1cccc(NC(=O)CC(=O)n2nc(C)c(N=Nc3ccccc3)c2C)c1 | – | > 100 µM | – | > 100 µM | – | > 100 µM | – | – | – | > 100 µM | – | > 100 µM | > 100 µM | > 100 µM | > 100 µM | > 100 µM | – | – | – | –
18 | c1cc2c(cc1NC1=NCCO1)CCC2 | – | > 10 µM | – | – | – | – | – | – | – | – | – | > 10 µM | – | > 10 µM | > 10 µM | > 10 µM | – | – | – | –
19 | CC(=O)OC(C)C(=O)C1c2cccc(O)c2C(=O)c2c(O)cc(C)cc21 (configuration not stated) | – | – | – | 3.68 µM | – | 1.85 µM | – | 2.59 µM | – | 1.03 µM | – | 1.66 µM | – | 8.17 µM | 1.56 µM | 1.43 µM | – | – | – | –
20 | O=[N+]([O-])c1cnc(Sc2ccncn2)s1 | – | – | 18.6 µM | 33.3 µM | 1.81 µM | 3.24 µM | 14 µM | 28.3 µM | 8.37 µM | 34 µM | 1.71 µM | 3.35 µM | 3.07 µM | 5.04 µM | 3.27 µM | 3.16 µM | 1.64 µM | 2 µM | 1.76 µM | 1.74 µM
21 | COc1ccc(C2=CSc3cc(Cl)c(C)cc3S(=O)(=O)N2C(C)=O)cc1 | 14.6 µM | > 100 µM | 59.5 µM | > 100 µM | 18.8 µM | 43.7 µM | 52.7 µM | > 100 µM | 15.2 µM | 60 µM | 36.2 µM | > 100 µM | 32.9 µM | > 100 µM | – | 41.4 µM | 11.5 µM | 2.13 µM | – | 15.8 µM
22 | O=C(O)C(Cc1ccccc1)N1C(=O)N/C(=C\c2ccc(F)cc2)C1=O (configuration not stated) | – | > 100 µM | – | – | – | > 100 µM | – | > 100 µM | – | > 100 µM | – | > 100 µM | > 100 µM | > 100 µM | > 100 µM | – | – | – | – | –
